Test results published in the CheMixHub ionic liquid set.
± gives the uncertainty stated by the source.

Test: xn = mol fraction of the nth substance listed
Conditions: for electrical conductivity: frequency 0.0005 MHz

CCCCCC[n+]1ccn(C)c1.[Br-] + NC(N)=O + O
298.15 K, 100 kPa
Conditions | viscosity [mPa·s]
x2 = 0, x3 = 0.9008 | 6.89 ± 0.35
x2 = 0, x3 = 0.9487 | 2.88 ± 0.15
x2 = 0.008076, x3 = 0.8927 | 6.77 ± 0.34
x2 = 0.008492, x3 = 0.9402 | 2.97 ± 0.15
x2 = 0.01609, x3 = 0.8847 | 6.7 ± 0.34
x2 = 0.01695, x3 = 0.9318 | 2.98 ± 0.15
x2 = 0.02496, x3 = 0.9237 | 2.95 ± 0.15
x2 = 0.02678, x3 = 0.9219 | 2.96 ± 0.15
x2 = 0.03154, x3 = 0.8693 | 6.78 ± 0.34
x2 = 0.03322, x3 = 0.9155 | 2.98 ± 0.15
x2 = 0.03874, x3 = 0.8621 | 6.76 ± 0.34
x2 = 0.0408, x3 = 0.9079 | 3.02 ± 0.16

CCCCCCCC(=O)[O-].c1c[nH+]c[nH]1 + O
101.3 kPa
Conditions | viscosity [mPa·s]
293.15 K, x2 = 0.3042 | 53.53 ± 0.6
293.15 K, x2 = 0.4091 | 50.43 ± 0.41
293.15 K, x2 = 0.6017 | 39.83 ± 0.88
298.15 K, x2 = 0.5119 | 37.4 ± 0.86
298.15 K, x2 = 0.7995 | 18.69 ± 0.43
303.15 K, x2 = 0.3042 | 34.6 ± 0.81
303.15 K, x2 = 0.6643 | 24.26 ± 0.56
313.15 K, x2 = 0.1964 | 24.17 ± 0.57
313.15 K, x2 = 0.8154 | 10.93 ± 0.26
318.15 K, x2 = 0.0989 | 23.17 ± 0.54
318.15 K, x2 = 0.3042 | 19.22 ± 0.45
318.15 K, x2 = 0.6017 | 16.16 ± 0.38
318.15 K, x2 = 0.8154 | 9.92 ± 0.24
323.15 K, x2 = 0 | 25.33 ± 0.61
323.15 K, x2 = 0.0989 | 19.77 ± 0.46
323.15 K, x2 = 0.3042 | 16.85 ± 0.4
323.15 K, x2 = 0.8154 | 9.3 ± 0.23

CCCCCCCCOS(=O)(=O)[O-].CC[n+]1ccn(C)c1 + O
101 kPa
Conditions | electrical conductivity [S/m] | viscosity [mPa·s]
263.15 K, x2 = 0.8103 | 0.26 ± 0.016 | –
288.15 K, x2 = 0.7822 | 0.678 ± 0.041 | –
298.15 K, x2 = 0.8236 | 1.14 ± 0.069 | 63.5 ± 1.4
303.15 K, x2 = 0.8236 | 1.32 ± 0.08 | 48.9 ± 1.1
303.15 K, x2 = 0.8384 | 1.52 ± 0.092 | 46 ± 1
313.15 K, x2 = 0.8103 | 1.65 ± 0.099 | 32.07 ± 0.71
323.15 K, x2 = 0.8236 | 2.2 ± 0.13 | –
333.15 K, x2 = 0.7822 | 2.4 ± 0.14 | 15.7 ± 0.35
333.15 K, x2 = 0.8236 | 2.77 ± 0.17 | –
343.15 K, x2 = 0.7822 | 2.9 ± 0.17 | 11.31 ± 0.25

CCCCCC[n+]1ccn(C)c1.[Br-] + O
viscosity [mPa·s]
Conditions | 288.15 K | 298.15 K | 308.15 K | 318.15 K
100 kPa, x1 = 0.0001802 | 1.159 ± 0.044 | 0.926 ± 0.043 | 0.762 ± 0.043 | 0.645 ± 0.042
100 kPa, x1 = 0.0007203 | 1.165 ± 0.044 | 0.934 ± 0.043 | 0.77 ± 0.043 | 0.643 ± 0.042
100 kPa, x1 = 0.00126 | 1.171 ± 0.044 | 0.942 ± 0.043 | 0.776 ± 0.043 | 0.66 ± 0.043
100 kPa, x2 = 0.9008 | – | 6.89 ± 0.35 | – | –
101 kPa, x1 = 1.982e-05 | 1.136 ± 0.024 | – | 0.722 ± 0.016 | –
101 kPa, x1 = 3.243e-05 | 1.138 ± 0.024 | 0.891 ± 0.019 | 0.723 ± 0.016 | –
101 kPa, x1 = 6.667e-05 | 1.142 ± 0.024 | 0.896 ± 0.019 | 0.726 ± 0.016 | –
101 kPa, x1 = 0.001844 | – | 0.948 ± 0.013 | – | –
101 kPa, x1 = 0.003654 | – | 1.005 ± 0.014 | – | –
101 kPa, x1 = 0.005425 | – | 1.053 ± 0.014 | – | –
101 kPa, x1 = 0.007153 | – | 1.101 ± 0.014 | – | –

CCCC[n+]1ccn(C)c1.COS(=O)(=O)[O-] + O
viscosity [mPa·s], 101 kPa
Conditions | 283.15 K | 293.15 K | 303.15 K | 313.15 K | 323.15 K | 333.15 K | 343.15 K
x2 = 0.0004 | 527 ± 18 | 273.8 ± 6.9 | 153.5 ± 2.9 | 93.1 ± 1.4 | 60.24 ± 0.76 | 41.07 ± 0.52 | 29.3 ± 0.37
x2 = 0.0999 | 432 ± 13 | 229.3 ± 5.2 | 132.8 ± 2.2 | 82.6 ± 1.1 | 54.53 ± 0.63 | 37.8 ± 0.45 | 27.72 ± 0.33
x2 = 0.194 | 356.2 ± 9.9 | 193.6 ± 3.9 | 114.5 ± 1.7 | 72.55 ± 0.86 | 48.65 ± 0.54 | 34.25 ± 0.38 | 25.14 ± 0.28
x2 = 0.3979 | 182.1 ± 3.4 | 104.3 ± 1.4 | 64.51 ± 0.65 | 42.47 ± 0.42 | 29.48 ± 0.29 | 21.44 ± 0.21 | 16.88 ± 0.17
x2 = 0.6025 | 63.13 ± 0.6 | 38.93 ± 0.35 | 25.65 ± 0.23 | 17.84 ± 0.16 | 12.97 ± 0.12 | 9.806 ± 0.087 | 8.289 ± 0.073
x2 = 0.8005 | 19.72 ± 0.17 | 13.01 ± 0.11 | 9.056 ± 0.075 | 6.609 ± 0.055 | 5.006 ± 0.042 | 3.929 ± 0.033 | 3.175 ± 0.027
x2 = 0.8993 | 8.179 ± 0.067 | 5.646 ± 0.046 | 4.113 ± 0.033 | 3.137 ± 0.026 | 2.483 ± 0.021 | 2.029 ± 0.017 | 1.707 ± 0.015

CCCC[n+]1ccn(C)c1.N#C[C-](C#N)C#N + O
viscosity [mPa·s], 101 kPa
Conditions | 278.15 K | 288.15 K | 298.15 K | 308.15 K | 318.15 K | 328.15 K | 333.15 K | 338.15 K | 348.15 K | 358.15 K
x2 = 0 | 76.6 ± 2 | 43.55 ± 0.74 | 27.32 ± 0.47 | 18.45 ± 0.32 | 13.21 ± 0.23 | 9.91 ± 0.18 | – | 7.71 ± 0.14 | 6.18 ± 0.11 | 5.08 ± 0.095
x2 = 0.01382 | – | – | – | – | – | 9.9 ± 0.13 | 8.72 ± 0.11 | – | 6.245 ± 0.079 | –
x2 = 0.0458 | 67.8 ± 1.3 | 39.3 ± 0.66 | 25.05 ± 0.42 | 17.19 ± 0.29 | 12.48 ± 0.21 | 9.46 ± 0.16 | – | 7.43 ± 0.13 | 6.01 ± 0.11 | 4.966 ± 0.092
x2 = 0.1008 | – | 31.74 ± 0.52 | 20.8 ± 0.35 | 14.54 ± 0.24 | 10.68 ± 0.18 | 8.18 ± 0.14 | – | 6.47 ± 0.12 | 5.261 ± 0.095 | 4.375 ± 0.081
x2 = 0.175 | 47.79 ± 0.76 | 28.85 ± 0.47 | 19.03 ± 0.31 | 13.37 ± 0.22 | 9.89 ± 0.17 | 7.62 ± 0.13 | – | 6.06 ± 0.11 | 4.944 ± 0.088 | 4.125 ± 0.076
x2 = 0.2116 | 44.3 ± 0.7 | 26.98 ± 0.43 | 17.9 ± 0.29 | 12.67 ± 0.21 | 9.43 ± 0.16 | 7.3 ± 0.12 | – | 5.83 ± 0.1 | 4.783 ± 0.085 | 4.001 ± 0.073
x2 = 0.2885 | 37.68 ± 0.58 | 23.28 ± 0.36 | 15.62 ± 0.25 | 11.15 ± 0.18 | 8.36 ± 0.14 | 6.51 ± 0.11 | – | 5.232 ± 0.09 | 4.309 ± 0.076 | 3.618 ± 0.066
x2 = 0.4273 | 28.9 ± 0.43 | 18.24 ± 0.28 | 12.43 ± 0.19 | 8.99 ± 0.14 | 6.81 ± 0.11 | 5.351 ± 0.089 | – | 4.329 ± 0.074 | 3.586 ± 0.064 | 3.028 ± 0.056
x2 = 0.5034 | 25.05 ± 0.37 | 15.99 ± 0.24 | 11 ± 0.17 | 8.01 ± 0.13 | 6.106 ± 0.099 | 4.82 ± 0.08 | – | 3.916 ± 0.068 | 3.273 ± 0.058 | 2.748 ± 0.052
x2 = 0.5607 | 21.78 ± 0.32 | 14.03 ± 0.21 | 9.71 ± 0.15 | 7.1 ± 0.11 | 5.428 ± 0.088 | 4.295 ± 0.072 | – | 3.496 ± 0.061 | 2.912 ± 0.053 | 2.472 ± 0.047

CC[n+]1ccn(C)c1.COS(=O)(=O)[O-] + O
101 kPa
Conditions | viscosity [mPa·s]
288.15 K, x2 = 0.0023 | 137.7 ± 2.4
288.15 K, x2 = 0.8948 | 4.861 ± 0.039
298.15 K, x2 = 0.0023 | 83.9 ± 1.2
298.15 K, x2 = 0.0887 | 80.2 ± 1
308.15 K, x2 = 0.2235 | 42.26 ± 0.46
308.15 K, x2 = 0.4163 | 24.36 ± 0.24
308.15 K, x2 = 0.8948 | 2.817 ± 0.023
318.15 K, x2 = 0.0023 | 37.81 ± 0.48
328.15 K, x2 = 0.0023 | 27.34 ± 0.34
338.15 K, x2 = 0.4163 | 10.89 ± 0.11
338.15 K, x2 = 0.6106 | 5.924 ± 0.053
